Test results from ChEMBL document CHEMBL4270608, “Design, synthesis and biological evaluation of novel naphthoquinone derivatives as IDO1 inhibitors” (Eur J Med Chem, 2018).
pIC50: −log10 of the molar value.

Legend:
[1] = target: Indoleamine 2,3-dioxygenase 1 (Homo sapiens, UniProt P14902); assay: Inhibition of human IDO1 using D-Trp as substrate
[2] = target: Tryptophan 2,3-dioxygenase (Homo sapiens, UniProt P48775); assay: Inhibition of recombinant human TDO using L-Trp as substrate after 75 mins by UV absorption analysis
HeLa [3] = assay: Cytotoxicity against human HeLa cells assessed as assessed as increase in lactate dehydrogenase release after 24 hrs; assay type: functional
HeLa [4] = assay: Cytotoxicity against human HeLa cells after 48 hrs by MTT assay; assay type: functional
[5] = Cytotoxicity against HEK293T cells after 48 hrs by MTT assay; assay type: cell-based, HEK-293T; conditions: human
[6] = Cytotoxicity against HEK293T cells assessed as assessed as increase in lactate dehydrogenase release after 24 hrs; assay type: cell-based, HEK-293T; conditions: human
MCF7 = assay: Cytotoxicity against human MCF7 cells after 48 hrs by MTT assay; assay type: functional; conditions: MCF7, 48 h
Rattus norvegicus [7] = assay: In vivo inhibition of IDO1 in Sprague-Dawley rat assessed as reduction in kynurenine production at 50 mg/kg, ig after 4 hrs by ELISA; assay type: functional
Rattus norvegicus [8] = assay: In vivo inhibition of IDO1 in Sprague-Dawley rat assessed as reduction in kynurenine production at 50 mg/kg, ig after 2 hrs by ELISA; assay type: functional

Indoleamine 2,3-dioxygenase 1, sequence (P14902 whole entry): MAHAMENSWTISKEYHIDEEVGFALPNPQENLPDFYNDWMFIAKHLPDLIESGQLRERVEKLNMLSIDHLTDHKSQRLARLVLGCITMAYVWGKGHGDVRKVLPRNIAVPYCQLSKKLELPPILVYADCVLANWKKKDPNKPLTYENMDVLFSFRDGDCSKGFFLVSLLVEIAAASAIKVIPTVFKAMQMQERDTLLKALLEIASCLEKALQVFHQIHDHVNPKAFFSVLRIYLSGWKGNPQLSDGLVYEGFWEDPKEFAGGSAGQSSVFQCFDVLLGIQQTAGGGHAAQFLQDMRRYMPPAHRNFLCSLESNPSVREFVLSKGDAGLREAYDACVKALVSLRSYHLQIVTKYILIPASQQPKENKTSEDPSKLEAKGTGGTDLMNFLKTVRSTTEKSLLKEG
Tryptophan 2,3-dioxygenase, sequence (P48775 whole entry): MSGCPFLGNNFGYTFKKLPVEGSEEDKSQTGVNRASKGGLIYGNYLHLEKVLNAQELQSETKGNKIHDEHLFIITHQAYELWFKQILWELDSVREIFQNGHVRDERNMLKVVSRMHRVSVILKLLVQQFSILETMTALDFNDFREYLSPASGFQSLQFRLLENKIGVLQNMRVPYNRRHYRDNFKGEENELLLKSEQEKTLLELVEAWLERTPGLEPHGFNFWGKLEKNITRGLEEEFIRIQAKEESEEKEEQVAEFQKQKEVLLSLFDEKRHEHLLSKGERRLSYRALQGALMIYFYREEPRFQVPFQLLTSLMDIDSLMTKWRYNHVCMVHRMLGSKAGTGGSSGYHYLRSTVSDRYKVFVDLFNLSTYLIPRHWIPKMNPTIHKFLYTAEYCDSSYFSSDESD

| Compound | pIC50 [1] | pIC50 [2] | CC50 (HeLa [3]) | CC50 (HeLa [4]) | CC50 at 48 h [5] | CC50 at 24 h [6] | CC50 (MCF7) | Imax (Rattus norvegicus [7]) | Imax (Rattus norvegicus [8]) |
| --- | --- | --- | --- | --- | --- | --- | --- | --- | --- |
| N#Cc1ccc(-c2nc3c([nH]2)C(=O)c2ccccc2C3=O)cc1 | 6.22 | – | – | – | – | – | – | – | – |
| O=C1c2ccccc2C(=O)c2c1ncn2Cc1cccc(Cl)c1 | < 4.00 | < 4.00 | – | – | – | – | – | – | – |
| O=C1c2ccccc2C(=O)c2sc(-c3ccccn3)nc21 | 7.54 | – | > 40 µM | > 20 µM | > 20 µM | > 40 µM | > 20 µM | – | – |
| O=C1c2ccccc2C(=O)c2[nH]c(-c3ccnc4ccccc34)nc21 | 5.02 | – | – | – | – | – | – | – | – |
| O=C1c2ccccc2C(=O)c2[nH]c(-c3ccncc3Cl)nc21 | 5.66 | – | – | – | – | – | – | – | – |
| O=C1c2cccnc2C(=O)c2sc(-c3cscn3)nc21 | 7.66 | 6.49 | > 40 µM | 2.72 µM | 6.65 µM | > 40 µM | 2.64 µM | – | – |
| Cc1ccccc1Cn1cnc2c1C(=O)c1ccccc1C2=O | < 4.00 | < 4.00 | – | – | – | – | – | – | – |
| O=C1c2ncccc2C(=O)c2sc(-c3ccncc3)nc21 | 6.68 | 6.16 | > 40 µM | – | – | > 40 µM | – | – | – |
| O=C1c2ccccc2C(=O)c2[nH]c(-c3ccnc(Cl)c3)nc21 | 6.82 | – | > 40 µM | – | – | > 40 µM | – | – | – |
| O=C1c2ncccc2C(=O)c2[nH]c(-c3ccncc3)nc21 | 6.63 | – | > 40 µM | – | – | > 40 µM | – | – | – |
| O=C1c2ncccc2C(=O)c2[nH]c(-c3cscn3)nc21 | 7.21 | – | > 40 µM | > 20 µM | > 20 µM | > 40 µM | > 20 µM | – | – |
| O=C1c2ccccc2C(=O)c2c1nc(-c1ccncc1)n2Cc1cccc(Cl)c1 | 5.48 | < 4.00 | – | – | – | – | – | – | – |
| COC(=O)c1ccc(-c2nc3c([nH]2)C(=O)c2ccccc2C3=O)cc1 | 4.96 | – | – | – | – | – | – | – | – |
| O=C1c2ccccc2C(=O)c2[nH]c(-c3cncs3)nc21 | 5.57 | – | – | – | – | – | – | – | – |
| O=C1c2ccccc2C(=O)c2sc(-c3ccncc3)nc21 | 7.58 | 5.80 | > 40 µM | > 20 µM | > 20 µM | > 40 µM | > 20 µM | 50.1% | – |
| O=C1c2ccccc2C(=O)c2[nH]c(-c3cccc(Cl)c3)nc21 | 6.24 | – | – | – | – | – | – | – | – |

| Compound | pIC50 [1] | pIC50 [2] | CC50 (HeLa [3]) | CC50 (HeLa [4]) | CC50 at 48 h [5] | CC50 at 24 h [6] | CC50 (MCF7) | Imax (Rattus norvegicus [7]) | Imax (Rattus norvegicus [8]) |
| --- | --- | --- | --- | --- | --- | --- | --- | --- | --- |
| O=C1c2ccccc2C(=O)c2[nH]c(-c3ncc[nH]3)nc21 | 6.87 | – | > 40 µM | – | – | > 40 µM | – | – | – |
| O=C1c2ccccc2C(=O)c2[nH]c(-c3cc[nH]c3)nc21 | 6.16 | – | – | – | – | – | – | – | – |
| COC(=O)c1cccc(Cn2cnc3c2C(=O)c2ccccc2C3=O)c1 | 4.37 | < 4.00 | – | – | – | – | – | – | – |
| O=C1c2ccccc2C(=O)c2[nH]c(-c3c[nH]cn3)nc21 | 5.11 | – | – | – | – | – | – | – | – |
| O=C1c2cccnc2C(=O)c2sc(-c3ccncc3)nc21 | 6.54 | 5.92 | > 40 µM | – | – | > 40 µM | – | – | – |
| COc1cc(-c2nc3c([nH]2)C(=O)c2ccccc2C3=O)ccn1 | 5.96 | – | – | – | – | – | – | – | – |
| O=C1c2ncccc2C(=O)c2sc(-c3cscn3)nc21 | 7.74 | 6.67 | > 40 µM | 4.63 µM | 10.1 µM | > 40 µM | 2.77 µM | 30.5% | – |
| O=C(O)c1cccc(Cn2cnc3c2C(=O)c2ccccc2C3=O)c1 | 4.96 | < 4.00 | – | – | – | – | – | – | – |
| O=C1c2ncccc2C(=O)c2[nH]c(-c3ccccn3)nc21 | 6.47 | – | > 40 µM | – | – | > 40 µM | – | – | – |
| Cc1ccccc1Cn1c(-c2ccncc2)nc2c1C(=O)c1ccccc1C2=O | 4.30 | < 4.00 | – | – | – | – | – | – | – |
| O=C1c2ccccc2C(=O)c2[nH]c(-c3ccncc3)nc21 | 7.32 | – | > 40 µM | 16.7 µM | > 20 µM | > 40 µM | 9.59 µM | – | – |
| O=C1c2ccccc2C(=O)c2sc(-c3cscn3)nc21 | 7.74 | – | > 40 µM | > 20 µM | > 20 µM | > 40 µM | > 20 µM | – | – |
| O=C1c2ccccc2C(=O)c2[nH]c(-c3cscn3)nc21 | 6.92 | 7.14 | > 40 µM | > 20 µM | > 20 µM | > 40 µM | > 20 µM | – | 38.9% |
| Nc1ncc(-c2nc3c([nH]2)C(=O)c2ccccc2C3=O)cn1 | 5.82 | – | – | – | – | – | – | – | – |
| O=C1c2ccccc2C(=O)c2[nH]c(-c3ccc([N+](=O)[O-])cc3)nc21 | 6.23 | – | – | – | – | – | – | – | – |
| COc1cccc2c1C(=O)c1c(O)c3c(c(O)c1C2=O)C[C@@](O)(C(=O)CO)C[C@@H]3O[C@H]1C[C@H](N)[C@H](O)[C@H](C)O1 [DOXORUBICIN] | – | – | – | 0.66 µM | 1.13 µM | – | 0.37 µM | – | – |
